Laboratory results: patent US8329707B2, “Substituted pyrazine compounds” (Astellas Pharma Inc., priority 2008, dated 2012)
Counter-ions that a name gives are not always drawn.

Tests used:
[1] = system: C57BL/6 mice after loading a high fat diet; test: Oral glucose tolerance test in mouse fed high fat diet; format: in vivo; conditions: high fat diet about 30 days, fasted overnight, 1 mg/kg oral, glucose loading after 30 minutes, AUC lowering rate of blood glucose up to 2 hours vs solvent control
Description: (§1) The test compound was dissolved in a solvent (5% Cremophor, aqueous 5% DMSO solution), and to a C57BL/6 mice after loading a high fat diet for about 30 days and then fasting overnight was orally administered 1 mg/kg of the test compound, and after 30 minutes, oral glucose loading was carried out. Immediately before the administration of the test compound, immediately before the glucose loading, and 0.25, 0.5, 1, and 2 hours after the glucose loading, blood was collected and blood glucose levels were measured. An AUC lowering rate (%) of the blood glucose levels from immediately before the glucose loading to 2 hours after the glucose loading with respect to that of the solvent control was calculated.

ICR mouse = test: Oral glucose tolerance test in normal mouse; format: in vivo; conditions: ICR mouse fasted overnight; 10 mg/kg oral, glucose loading after 30 minutes; AUC lowering rate of blood glucose up to 2 hours after glucose loading vs solvent control
Description: as §1, with “to an ICR mouse” for “to a C57BL/6 mice”, “after” for “after loading a high fat diet for about 30 days and then”, “administered 10” for “administered 1”, “control group” for “control”

[2] = target: T1, recombinant human hepatic type GK (GST-hGK2) (Homo sapiens, UniProt P35557); test: Measurement of glucokinase (GK) activation; format: biochemical; conditions: 10 min; test compound final concentration 10 μM; 5 mM glucose; 27° C.; increase of absorbance at 340 nm during first 10 minutes vs DMSO; read-out: GK activation (%)
T1 construct: made in house; host or cells: Escherichia coli BL21
T1 sequence (P35557 1-466 isoform P35557-2): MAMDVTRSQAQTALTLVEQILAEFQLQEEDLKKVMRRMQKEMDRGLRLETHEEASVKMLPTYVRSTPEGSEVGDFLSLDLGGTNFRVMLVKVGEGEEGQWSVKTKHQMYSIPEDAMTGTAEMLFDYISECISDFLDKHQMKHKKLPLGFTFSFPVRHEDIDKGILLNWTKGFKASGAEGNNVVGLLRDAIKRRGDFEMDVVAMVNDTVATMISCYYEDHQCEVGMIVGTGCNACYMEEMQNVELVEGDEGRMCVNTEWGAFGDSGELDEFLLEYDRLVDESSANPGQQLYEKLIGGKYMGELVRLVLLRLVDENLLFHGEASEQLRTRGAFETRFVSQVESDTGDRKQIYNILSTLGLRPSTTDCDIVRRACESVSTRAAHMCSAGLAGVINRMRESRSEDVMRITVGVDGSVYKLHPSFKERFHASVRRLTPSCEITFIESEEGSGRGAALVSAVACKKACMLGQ
Description: The present test was carried out in accordance with the method described in Science 301: 370-373, 2003 and with partial modification thereof. Hereinafter, the summary is described.
First, the cloning of GK (GenBank No. AK122876) was carried out. 5′-[…]-3′(SEQ ID NO: 1) and 5′-[…]-3′(SEQ ID NO: 2) were used as primers, and pME18S-FL3-Glucokinase isoform 2 was used as a template to carry out PCR. The obtained reaction product was TA-cloned into a pGEM-T easy vector, digested with EcoRI and XhoI, and introduced to the pGEX-5X-1 vector digested in the same manner by ligation. By using this plasmid DNA (pGEX-human Glucokinase 2), a recombinant human hepatic type GK (GST-hGK2) fused with GST (Glutathione S-transferase) was expressed in Escherichia coli (BL21 strain) and purified by Glutathione Sepharose.
The reaction of GK was carried out at 27° C. on a 96-well plate. First, 1 μL of the test compound (final concentration 10 μM) that has been diluted with dimethylsulfoxide (DMSO) was added to 89 μL of an enzyme mixed liquid (all final concentration 25 mM HEPES pH 7.4, 25 mM KCl, 2 mM MgCl2, 1 mM ATP, 0.1% BSA, 1 mM DTT, 1 mM NADP (nicotinamide adenine dinucleotide phosphate), 2.5 U/ml glucose-6-phosphate dehydrogenase, GST-hGK2 adjusted to ΔODCont of about 0.05 to 0.10). Subsequently, 10 μL of a substrate solution (final concentration 5 mM glucose) was added to start the reaction. In order to quantify a final product NADPH, an absorbance at a wavelength of 340 nm was measured, and the GK activation (%) of the test compound was calculated from the increase of absorbance during the first 10 minutes (ΔOD) after initiation of the reaction. GK activation (%)=[(ΔODTest)−(ΔODCont)]/(ΔODCont)×100
ΔODTest: ΔOD at test compound

SD rat = test: Oral glucose tolerance test in normal rat; format: in vivo; conditions: SD rat fasted overnight; 1 mg/kg oral, glucose loading after 30 minutes; AUC lowering rate of blood glucose up to 2 hours vs solvent control
Description: as §1, with “an SD rat” for “a C57BL/6 mice”, “after” for “after loading a high fat diet for about 30 days and then”, “and” for “and 0.25,”

activation at 10 µM [2] [%] | Compound | Blood glucose lowering rate (%) [1] [%] | inhibition in vivo at 10 mg/kg (ICR mouse) [%] | Blood glucose lowering rate (%) (SD rat)
199 | Cn1ccc(NC(=O)/C(=C/[C@H]2CC[C@@H](O)C2)c2ccc(S(=O)(=O)C3CC3)c(C3CC3)c2)n1 [Example 22-2, 2(E)-[3-cyclopropyl-4-(cyclopropylsulfonyl)phenyl]-3-[(1S,3R)-3-hydroxycyclopentyl]-N-(1-methyl-1H-pyrazol-3-yl)acrylamide] |  | 52 | 25
197 | Cn1ccc(NC(=O)/C(=C/[C@H]2CC[C@H](O)C2)c2ccc(S(=O)(=O)C3CC3)c(C3CC3)c2)n1 [Example 22-1, 2(E)-[3-cyclopropyl-4-(cyclopropylsulfonyl)phenyl]-3-[(1S,3S)-3-hydroxycyclopentyl]-N-(1-methyl-1H-pyrazol-3-yl)acrylamide] |  | 55 | 27
355 | Cn1ccc(NC(=O)/C(=C/[C@H]2CCC(=O)C2)c2ccc(S(=O)(=O)C3CC3)c(C3CC3)c2)n1 [Example 4-1, (2E)-2-[3-cyclopropyl-4-(cyclopropylsulfonyl)phenyl]-N-(1-methyl-1H-pyrazol-3-yl)-3-[(1S)-3-oxocyclopentyl]acrylamide] | 32 | 39 | 25

Second part, the compound before the results:

Compound | activation at 10 µM [2] [%] | Blood glucose lowering rate (%) [1] [%] | inhibition in vivo at 10 mg/kg (ICR mouse) [%] | Blood glucose lowering rate (%) (SD rat)
Cc1cnc(NC(=O)/C(=C/[C@H]2CCC(=O)C2)c2ccc(S(=O)(=O)C3CC3)c(C3CC3)c2)cn1 [Example 36] | 332 | 43 | 45 | 40
Cc1ccc(NC(=O)[C@H](C[C@H]2CCC(=O)C2)c2ccc(S(=O)(=O)C3CC3)c(C3CC3)c2)nc1 [Example 9, (2R)-2-[3-cyclopropyl-4-(cyclopropylsulfonyl)phenyl]-N-(5-methylpyridin-2-yl)-3-[(1R)-3-oxocyclopentyl]propanamide monohydrochloride] | 333 |  | 52 | 
O=C1CC[C@H](C[C@@H](C(=O)Nc2cnc(OCCO)cn2)c2ccc(S(=O)(=O)C3CC3)c(C3CC3)c2)C1 [Example 11, (2R)-2-[3-cyclopropyl-4-(cyclopropylsulfonyl)phenyl]-N-[5-(2-hydroxyethoxy)pyrazin-2-yl]-3-[(1R)-3-oxocyclopentyl]propanamide] | 433 |  | 50 | 20
Cc1cnc(NC(=O)[C@H](C[C@H]2CCC(=O)C2)c2ccc(S(=O)(=O)C3CC3)c(C3CC3)c2)cn1 [Example 55] | 315 |  | 56 | 
CC(=O)c1csc(NC(=O)[C@H](C[C@H]2CCC(=O)C2)c2ccc(S(=O)(=O)C3CC3)c(C3CC3)c2)n1 [Example 51] | 352 |  | 55 | 
COc1cnc(NC(=O)[C@H](C[C@H]2CCC(O)C2)c2ccc(S(=O)(=O)C3CC3)c(C3CC3)c2)cn1 (stereo partly shown) [Example 79] | 297 |  | 45 | 
CC(O)c1cnc(NC(=O)[C@H](C[C@H]2CCC(=O)C2)c2ccc(S(=O)(=O)C3CC3)c(C3CC3)c2)cn1 (stereo partly shown) [Example 83] | 345 |  | 51 | 17
O=C1CC[C@H](C[C@@H](C(=O)Nc2cnc(CO)cn2)c2ccc(S(=O)(=O)C3CC3)c(C3CC3)c2)C1 [Example 15, (2R)-2-[3-cyclopropyl-4-(cyclopropylsulfonyl)phenyl]-N-[5-(hydroxymethyl)pyrazin-2-yl]-3-[(1R)-3-oxocyclopentyl]propanamide] | 284 |  | 49 | 22
